Results: ChEMBL document CHEMBL1142587, “Rhizochalin A, a novel two-headed sphingolipid from the sponge Rhizochalina incrustata” (J Nat Prod, 2005)
Converted amounts (≈) assume the structure as drawn.

Test system: Ehrlich
Experiment: Cytotoxicity against mouse Ehrlich cells
Format: functional, cell-based

## C[C@@H](N)[C@H](O)CCCCCCCC(=O)CCCCCCCCCCCCCC[C@@H](O[C@@H]1O[C@H](CO)[C@H](O)[C@H](O)[C@H]1O)[C@@H](C)N [RHIZOCHALIN]
  IC50: 10 µg/mL (≈ 15.8 µM)
